Source: patent US12030876B2, “Aryl hydrocarbon receptor (AHR) agonists and uses thereof” (Ikena Oncology, Inc., priority 2019, dated 2024)
Blank lines part the entries; values can stand above or below the molecule they belong to.

Columns and labels:
[1] = test system: DSS model of Inflammatory Bowel Disease (IBD); assay type: in vivo, C57Bl/6 mice; settings: DSS model
Method: On study day −1, C57Bl/6 mice are weighed and randomized into treatment groups based on body weight. On study day 0, treatment groups are given 2.5% DSS in drinking water and treatment is initiated on the same day, with either vehicle or AHR agonist compound(s). On study day 7, DSS drinking water is replaced with normal drinking water for the remainder of the study. Body weight is measured daily during the entire study. On study day 10, animals are anesthetized with Isoflurane and bled to exsanguination followed by cervical dislocation. The entire colon is removed and measured for length, weight, and weight per length. Overall efficacy of test AR agonist compounds is based on body weight, colon length, and colon histopathology. Histopathology data is assessed for appropriate parameters, as determined by a pathologist and the parameters for these DSS studies can include inflammation, erosion, gland loss, edema, hyperplasia, neutrophil count, mucosal thickening, lymphoid aggregate count and lymphoid aggregate size. The different parameter scores can be added for a summed score for the study histopathology.

[2] = test system: DSS model of Inflammatory Bowel Disease (IBD); set-up: species or system C57Bl/6 mice; settings: mouse
[3] = test system: T-cell transfer IBD model; assay type: in vivo, SCID mice
Method: On study day 0, donor Balb/C mice are terminated, and spleens obtained for CD4+CD45RB^high cell isolation (Using a SCID IBD Cell Separation Protocol). After cells have been sorted and obtained, each recipient SCID animal receives an IP injection of, at a minimum, 4×10^5 cells (200 μl/mouse injections). Also on study day 0, SCID mice are weighed and randomized into treatment groups based on body weight. On study day 14, AHR agonist compound treatments are initiated and dosed orally daily; the control group receiving anti-IL12 (0.5 mg/mouse) is dosed IP once a week. On study day 49, animals are anesthetized with Isoflurane and bled to exsanguination followed by cervical dislocation. The entire colon is removed, measured, and weighed. Overall efficacy of AHR agonist compounds are based on a ratio of colon weight to length, and colon histopathology and colon cytokines (Th17 panel).

[4] = test system: human regulatory T cells (Tregs); experiment: Treg assay (human); assay type: cell-based; settings: compound present during induction of Tregs, in vitro; FIG. 15
Method: On day 0, naïve T cells from cryopreserved human derived PBMCs were isolated. These cells were plated in 48 well plate at 500,000 cells/mL concentration with human CD3/CD28 activation tetramer (12.5 μL/1×10^6 cells) and differentiated into regulatory T cells (Tregs) with 1 ng/mL […] and 5 ng/mL human recombinant TL-2 in the presence of DMSO or different concentrations of AHR agonist compounds.
On day 5, the Tregs were counted and washed. CD25− Effector T cells (Teffs) were isolated from the same human donor and were labeled with Cell Trace Violet. The Tregs and Teffs were cocultured for 4 days in 96 well plate at 1:2 or 1:1 ratio with human CD3/CD28 tetramer (12.5 μL/1×10^6 cells).
At the end of a 4 day co-culture, the cells were washed and stained with LiveDead stain. They were run on flow cytometer and analyzed using FLOWJO software.

[5] = test system: naive CD62L+ human T-Cells; experiment: Th17 assay; assay type: cell-based; settings: FIG. 16
Method: On Day 1, naive CD62L+ human T-Cells were plated in a 96 well plate (25,000 cells in 200 uL media). Cells were activated with human CD3/CD28 tetramer (12.5 μL/1×10^6 cells) and differentiated with human Th17 cytokines (50 ng/mL IL-6, 20 ng/mL IL-1 beta, 10 ng/mL IL-23, 1 ng/mL TGF-beta, 12 μg/mL anti-human IFN-γ antibody and 10 μg/mL anti-human TL-4 antibody) for 10 days. Media containing cytokine cocktail and CD3/CD28 was refreshed every 2-3 days. On Day 10, cell supernatant was collected and frozen for cytokine analysis. Cells were stimulated with 1× Cell Stimulation Cocktail (PMA and Ionomycin) for 5 hours. After 5 hours of stimulation, cells were stained for intracellular cytokines (human CD4, IL-17A, IL-22). Samples were run on BD LSR FORTESSA and analyzed in FLOWJO software.

Cyp1a1 gene expression = test system: Cyp1a1 gene expression; set-up: species or system C57BL/6N mice; settings: mouse, in vivo
Method: C57BL/6N mice are weighed and randomized into treatment groups with group size of 3-5 mice. On study Day 1, treatment is initiated and necropsies follow on day 1 at 4 and 12 hours post-dose and on Day 2, 24 hours post-dose. On Day 1, mice are dosed orally with one dose of the AHR agonist compound(s) that are in a suspension and mixed well before dosing. At the designated time, animals are euthanized and plasma and tissue taken for compound levels (PK) and compound effect (PD) on gene expression. Liver samples and proximal colon are weighed and then frozen for subsequent RNA extraction and RT-PCR analysis. AHR activation is determined by measuring Cyp1a1 gene expression relative to a housekeeping gene, such as GAPDH or HPRT. Cyp1a1 expression levels in the liver are compared to Cyp1a1 levels in the colon to determine a colon:liver ratio to determine the level of GI preferred AHR activation.

[6] = T-cell transfer IBD model, FIG. 9

in vivo AHR activation by expression of Cyp1a1 in the colon [2]: confirmed
in vivo AHR activation by expression of Cyp1a1 in the colon ([3]; mouse, in vivo): confirmed
Compound: FC(F)(F)c1cccc(Nc2nc(-c3cccc(Cl)c3)cs2)c1 [Compound P-2]
inflammation and erosion (histopathology) ([1]; relative to vehicle control, FIG. 6, FIG. 19): minimal inflammation and mild erosion
colon length ([1]; FIG. 5): increased colon length
content score ([1]; FIG. 5): improved content score
cytokine activity: IFN-γ, IL-1β, and MIP-3α/CCL20 ([3]; T-cell transfer IBD model, colon cytokines, FIG. 11): significant reduction
cytokine activity: GM-CSF and IL-6 ([3]; T-cell transfer IBD model, colon cytokines, FIG. 12): significant reduction
cytokine activity: IL-17/IL-25 and TNF-α ([3]; T-cell transfer IBD model, colon cytokines, FIG. 13): reduction
body weight [3, 6]: increased body weight
colon weight [3, 6]: decreased colon weight
reduction in colon weight compared to vehicle [3, 6]: 54%
reduction in colon weight per length compared to vehicle [3, 6]: 54%
inflammation ([3]; T-cell transfer IBD model, FIG. 10): significant reduction

Compound: Nc1cccc(-c2csc(Nc3cccc(C(F)(F)F)c3)n2)c1 [I-10]
suppressive functions of human Tregs [4]: increases suppressive functions
IL-17A+ human T-cells ([5]; Th17 polarizing conditions): decreases
IL-22+ human T-cells ([5]; Th17 polarizing conditions): increases
human Th17 cell differentiation ([5]; in vitro): modulates
Cyp1a1 induction in the colon (Cyp1a1 gene expression): comparable
